Assay results from PubChem BioAssay AID248 (DTP/NCI, 2004).
“And” between values parts separate entries of the source, which are not always exact repeats. Identical values can stand only once. Inconclusive results and toxic doses are left out. Cut-off read from the data, not from the text of the source: active = T/C of 150% or more; inactive = T/C below 125%.

Tested on: L1210 leukemia ip in BDF1 mice, survival T/C
Assay: NCI In Vivo Anticancer Drug Screen. Data for tumor model L1210 Leukemia (intraperitoneal) in B6D2F1 (BDF1) mice
Conditions: endpoint: mean survival time, higher = longer survival
In short: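 Survival endpoint. Drug-treated group vs vehicle group, expressed as T divided by C. Tumor passaged by transplantation.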

[1] = dose: 100.0 mg/kg/injection, schedule: Q01DX009 (ip), vehicle: saline
[2] = dose: 100.0 mg/kg/injection, schedule: Q04DX003 (ip), vehicle: saline
[3] = dose: 200.0 mg/kg/injection, schedule: Q01DX009 (ip), vehicle: saline
[4] = dose: 200.0 mg/kg/injection, schedule: Q04DX003 (ip), vehicle: saline
[5] = dose: 400.0 mg/kg/injection, schedule: Q01DX009 (ip), vehicle: saline
[6] = dose: 400.0 mg/kg/injection, schedule: Q04DX003 (ip), vehicle: saline
[7] = dose: 100.0 mg/kg/injection, schedule: Q04DX002 (ip), vehicle: Klucel (hydroxypropylcellulose) (HPC)
[8] = dose: 200.0 mg/kg/injection, schedule: Q04DX002 (ip), vehicle: Klucel (hydroxypropylcellulose) (HPC)
[9] = dose: 400.0 mg/kg/injection, schedule: Q04DX002 (ip), vehicle: Klucel (hydroxypropylcellulose) (HPC)
[10] = dose: 100.0 mg/kg/injection, schedule: Q04DX002 (ip), vehicle: saline with Tween-80
[11] = dose: 100.0 mg/kg/injection, schedule: Q01DX001 (ip), vehicle: saline with Tween-80
[12] = dose: 200.0 mg/kg/injection, schedule: Q01DX001 (ip), vehicle: saline with Tween-80
[13] = dose: 50.0 mg/kg/injection, schedule: Q01DX001 (ip), vehicle: saline with Tween-80

Measured: T/C

CCCC(NC(=O)C(C)N)C(=O)O (stereo not given)
inactive: dose: 12.5 mg/kg/injection, schedule: Q04DX002 (ip), vehicle: saline 105 % of control | dose: 25.0 mg/kg/injection, schedule: Q04DX002 (ip), vehicle: saline 102 % of control | dose: 50.0 mg/kg/injection, schedule: Q04DX002 (ip), vehicle: saline 102 % of control

CN(C)C(=O)c1cccc(N)c1
inactive: [1] 101 % of control | [2] 103 % of control | [3] 98 % of control | [4] 100 % of control | [5] 90 % of control | [6] 102 % of control

CCc1nc(N[N+](=O)[O-])nc(-c2ccccc2)c1-c1ccccc1O
inactive: [7] 107 % of control | [8] 94 % of control | [9] 107 % of control

Cc1c(CC#N)cc(C)c2c3c([nH]c12)-c1ccccc1CC3
inactive: dose: 50.0 mg/kg/injection, schedule: Q04DX002 (ip), vehicle: Klucel (hydroxypropylcellulose) (HPC) 102 % of control | [7] 106 % of control | [8] 102 % of control | [9] 104 % of control

Nc1nc(N)c(CCCOc2ccccc2)c(N)n1
inactive: dose: 100.0 mg/kg/injection, schedule: Q04DX002 (ip), vehicle: saline 105 % of control | dose: 200.0 mg/kg/injection, schedule: Q04DX002 (ip), vehicle: saline 105 % of control

CC(=O)c1ccc[n+](Cc2ccc3c(c2)OCO3)c1
inactive: dose: 75.0 mg/kg/injection, schedule: Q01DX001 (ip), vehicle: carboxymethylcellulose (CMC) 103 % of control | dose: 150.0 mg/kg/injection, schedule: Q01DX001 (ip), vehicle: carboxymethylcellulose (CMC) 109 % of control

CCOc1cc2ccc3c4cc(OC)c(OC)cc4c[n+](C)c3c2cc1OCC
inactive: [10] 98 % of control

CCN(CC)CCCC(C)NCCCN (stereo not given)
inactive: dose: 50.0 mg/kg/injection, schedule: Q01DX009 (ip), vehicle: saline 94 % of control | [1] 100 % of control and 106 % of control | [2] 90 % of control | [3] 104 % of control and 92 % of control | [4] 90 % of control

c1ccc(CC(Cc2ccccc2)NC2=NCCO2)cc1
inactive: dose: 6.25 mg/kg/injection, schedule: Q01DX009 (ip), vehicle: saline with Tween-80 106 % of control | dose: 6.25 mg/kg/injection, schedule: Q04DX003 (ip), vehicle: saline with Tween-80 107 % of control | dose: 12.5 mg/kg/injection, schedule: Q01DX009 (ip), vehicle: saline with Tween-80 94 % of control | dose: 12.5 mg/kg/injection, schedule: Q04DX003 (ip), vehicle: saline with Tween-80 106 % of control | dose: 25.0 mg/kg/injection, schedule: Q01DX009 (ip), vehicle: saline with Tween-80 89 % of control | dose: 25.0 mg/kg/injection, schedule: Q04DX003 (ip), vehicle: saline with Tween-80 102 % of control

NS(=O)(=O)c1ccc(NC(=O)Nc2cccc(Cl)c2Cl)cc1
inactive: dose: 100.0 mg/kg/injection, schedule: Q01DX009 (ip), vehicle: Klucel (hydroxypropylcellulose) (HPC) 101 % of control | dose: 200.0 mg/kg/injection, schedule: Q01DX009 (ip), vehicle: Klucel (hydroxypropylcellulose) (HPC) 101 % of control | dose: 400.0 mg/kg/injection, schedule: Q01DX009 (ip), vehicle: Klucel (hydroxypropylcellulose) (HPC) 95 % of control

O=C(O)COc1ccc(Cl)cc1Cc1ccccc1
inactive: [11] 98 % of control | [12] 96 % of control | dose: 400.0 mg/kg/injection, schedule: Q01DX001 (ip), vehicle: saline with Tween-80 117 % of control

CCOC(=O)C1CC1Cc1ccccc1 (stereo not given)
inactive: dose: 100.0 mg/kg/injection, schedule: Q01DX009 (ip), vehicle: saline with Tween-80 101 % of control | [2] 100 % of control | dose: 200.0 mg/kg/injection, schedule: Q01DX009 (ip), vehicle: saline with Tween-80 102 % of control | [4] 105 % of control | dose: 400.0 mg/kg/injection, schedule: Q01DX009 (ip), vehicle: saline with Tween-80 104 % of control | [6] 94 % of control

CCCCNC(=O)C1C=C2c3cccc4[nH]cc(c34)CC2N(C)C1 (stereo not given)
inactive: dose: 12.5 mg/kg/injection, schedule: Q01DX009 (ip), vehicle: Klucel (hydroxypropylcellulose) (HPC) 102 % of control | dose: 25.0 mg/kg/injection, schedule: Q01DX009 (ip), vehicle: Klucel (hydroxypropylcellulose) (HPC) 104 % of control | dose: 25.0 mg/kg/injection, schedule: Q04DX003 (ip), vehicle: Klucel (hydroxypropylcellulose) (HPC) 93 % of control | dose: 50.0 mg/kg/injection, schedule: Q01DX009 (ip), vehicle: Klucel (hydroxypropylcellulose) (HPC) 118 % of control | dose: 50.0 mg/kg/injection, schedule: Q04DX003 (ip), vehicle: Klucel (hydroxypropylcellulose) (HPC) 93 % of control | dose: 100.0 mg/kg/injection, schedule: Q04DX003 (ip), vehicle: Klucel (hydroxypropylcellulose) (HPC) 104 % of control | dose: 200.0 mg/kg/injection, schedule: Q04DX003 (ip), vehicle: Klucel (hydroxypropylcellulose) (HPC) 95 % of control

O=C(O)CCC1CCC(=O)OC1=O (stereo not given)
inactive: [1] 101 % of control | [2] 98 % of control | [3] 100 % of control | [4] 89 % of control | [5] 99 % of control | [6] 94 % of control

C[n+]1ccn2ccccc21
inactive: [13] 104 % of control | [11] 109 % of control

COC1CC(O[C@H]2CC[C@@]3(C)[C@H](CC[C@@H]4[C@@H]3CC[C@]3(C)[C@@H](C5=CC(=O)OC5)[C@@H](OC(C)=O)C[C@]43O)C2)OC(C)C1O (stereo not given in full)
inactive: dose: 5.0 mg/kg/injection, schedule: Q01DX001 (ip), vehicle: saline 94 % of control | dose: 10.0 mg/kg/injection, schedule: Q01DX001 (ip), vehicle: saline 108 % of control | dose: 20.0 mg/kg/injection, schedule: Q01DX001 (ip), vehicle: saline 100 % of control | dose: 40.0 mg/kg/injection, schedule: Q01DX001 (ip), vehicle: saline 103 % of control | dose: 50.0 mg/kg/injection, schedule: Q01DX001 (ip), vehicle: carboxymethylcellulose (CMC) 98 % of control | dose: 80.0 mg/kg/injection, schedule: Q01DX001 (ip), vehicle: saline 114 % of control | dose: 100.0 mg/kg/injection, schedule: Q01DX001 (ip), vehicle: carboxymethylcellulose (CMC) 104 % of control

O=C(NC(Cc1ccccc1)C(=O)Oc1cc(Cl)c(Cl)cc1Cl)OCc1ccccc1 (stereo not given)
inactive: dose: 100.0 mg/kg/injection, schedule: Q01DX001 (ip), vehicle: other 91 % of control | dose: 200.0 mg/kg/injection, schedule: Q01DX001 (ip), vehicle: other 91 % of control | dose: 400.0 mg/kg/injection, schedule: Q01DX001 (ip), vehicle: other 97 % of control

CCC[CH2][Sn]1([CH2]CCC)[O]C(=O)C[S]1
inactive: dose: 0.78 mg/kg/injection, schedule: Q04DX003 (ip), vehicle: saline 105 % of control | dose: 1.5 mg/kg/injection, schedule: Q01DX Z (ip), vehicle: saline 97 % of control | dose: 1.56 mg/kg/injection, schedule: Q01DX001 (ip), vehicle: acetone 96 % of control | dose: 1.56 mg/kg/injection, schedule: Q04DX003 (ip), vehicle: saline 109 % of control | dose: 2.5 mg/kg/injection, schedule: Q01DX009 (ip), vehicle: acetone 105 % of control | dose: 3.0 mg/kg/injection, schedule: Q01DX Z (ip), vehicle: saline 106 % of control | dose: 3.12 mg/kg/injection, schedule: Q01DX001 (ip), vehicle: acetone 104 % of control | dose: 3.12 mg/kg/injection, schedule: Q04DX003 (ip), vehicle: saline 109 % of control | dose: 4.6 mg/kg/injection, schedule: Q04DX003 (ip), vehicle: saline 107 % of control | dose: 6.0 mg/kg/injection, schedule: Q01DX Z (ip), vehicle: saline 90 % of control | dose: 6.25 mg/kg/injection, schedule: Q01DX001 (ip), vehicle: acetone 105 % of control | dose: 6.25 mg/kg/injection, schedule: Q04DX002 (ip), vehicle: saline with Tween-80 101 % of control | dose: 7.0 mg/kg/injection, schedule: Q04DX003 (ip), vehicle: saline 97 % of control | dose: 10.0 mg/kg/injection, schedule: Q04DX003 (ip), vehicle: saline 108 % of control | dose: 12.5 mg/kg/injection, schedule: Q04DX002 (ip), vehicle: saline with Tween-80 96 % of control | [10] 106 % of control

Oc1cccc(C(c2ccccc2)c2ccccc2)c1
inactive: [11] 94 % of control | [12] 94 % of control

O=C1OC2CCCC1C2 (stereo not given)
inactive: [13] 104 % of control | [11] 100 % of control | [12] 100 % of control
